From ChEMBL document CHEMBL3885861, “Open TG-GATES”

Species: Rattus norvegicus
Assay: Open TG-GATES - Regimen: Single
Format: toxicity, organism-based, Sprague-Dawley
Design: regimen Single, gender Male, age 6 weeks
Settings: in vivo, po, 150 mg/kg, route gavage, dose level High; for APTT / Bas / Eos / Fbg / Hb / Ht / Lym / MCHC / MCV / Mono / Neu / PT / Plat / RBC / Ret / WBC: tissue Blood; for KIDNEY_L / KIDNEY_R / KIDNEY_TOTAL: tissue Kidney; for LIVER: tissue Liver; for ALP / ALT / AST / BUN / CRE / Ca / Cl / DBIL / GLC / IP / K / LDH / Na / PL / RALB / TBIL / TC / TG / TP / gamma-GTP: tissue Plasma

SMILES: C1CCC(C(CC2CCCCN2)C2CCCCC2)CC1 (centres undefined) [PERHEXILINE]
- TERMINAL_BW (3 h): 215.1 g
- APTT (3 h): 21.8 s
- Bas (3 h): 0%
- Eos (3 h): 0.8%
- Fbg (3 h): 336.6 mg/dL
- Hb (3 h): 13.3 g/dL
- Ht (3 h): 40.3%
- Lym (3 h): 71.2%
- MCHC (3 h): 33.1%
- MCV (3 h): 65.5 fL
- Mono (3 h): 1.6%
- Neu (3 h): 24.8%
- PT (3 h): 16 s
- Plat (3 h): 129.8 x10_4/uL
- RBC (3 h): 616 x10_4/ul
- Ret (3 h): 7.7%
- WBC (3 h): 64 x10_2/uL
- KIDNEY_L (3 h): 0.9 g
- KIDNEY_R (3 h): 1 g
- KIDNEY_TOTAL (3 h): 1.9 g
- LIVER (3 h): 9.3 g
- ALP (3 h): 1714.6 IU/L
- ALT (3 h): 57.2 IU/L
- AST (3 h): 80 IU/L
- BUN (3 h): 11 mg/dL
- CRE (3 h): 0.1 mg/dL
- Ca (3 h): 10.6 mg/dL
- Cl (3 h): 104.8 meq/L
- DBIL (3 h): 0.002 mg/dL
- GLC (3 h): 173.6 mg/dL
- IP (3 h): 9.4 mg/dL
- K (3 h): 3.8 meq/L
- LDH (3 h): 215.2 IU/L
- Na (3 h): 140.2 meq/L
- PL (3 h): 133.2 mg/dL
- RALB (3 h): 3.2 g/dL
- TBIL (3 h): 0.016 mg/dL
- TC (3 h): 73.2 mg/dL
- TG (3 h): 46.8 mg/dL
- TP (3 h): 5.8 g/dL
- gamma-GTP (3 h): 0.8 IU/L
- TERMINAL_BW (6 h): 213.5 g
- APTT (6 h): 22.8 s
- Bas (6 h): 0%
- Eos (6 h): 1%
- Fbg (6 h): 336.8 mg/dL
- Hb (6 h): 13.1 g/dL
- Ht (6 h): 39.1%
- Lym (6 h): 68.8%
- MCHC (6 h): 33.5%
- MCV (6 h): 62.8 fL
- Mono (6 h): 1.8%
- Neu (6 h): 27.2%
- PT (6 h): 15.2 s
- Plat (6 h): 142.9 x10_4/uL
- RBC (6 h): 622.4 x10_4/ul
- Ret (6 h): 7.9%
- WBC (6 h): 59.6 x10_2/uL
- KIDNEY_L (6 h): 1 g
- KIDNEY_R (6 h): 1 g
- KIDNEY_TOTAL (6 h): 1.9 g
- LIVER (6 h): 9.1 g
- ALP (6 h): 1591 IU/L
- ALT (6 h): 51.8 IU/L
- AST (6 h): 75.8 IU/L
- BUN (6 h): 10.6 mg/dL
- CRE (6 h): 0.1 mg/dL
- Ca (6 h): 10.6 mg/dL
- Cl (6 h): 106 meq/L
- DBIL (6 h): 0.002 mg/dL
- GLC (6 h): 172.4 mg/dL
- IP (6 h): 9.2 mg/dL
- K (6 h): 4.2 meq/L
- LDH (6 h): 238.8 IU/L
- Na (6 h): 140.2 meq/L
- PL (6 h): 148.6 mg/dL
- RALB (6 h): 3.2 g/dL
- TBIL (6 h): 0.018 mg/dL
- TC (6 h): 75 mg/dL
- TG (6 h): 82 mg/dL
- TP (6 h): 5.7 g/dL
- gamma-GTP (6 h): 1 IU/L
- TERMINAL_BW (9 h): 220.6 g
- APTT (9 h): 21.1 s
- Bas (9 h): 0%
- Eos (9 h): 1%
- Fbg (9 h): 326.4 mg/dL
- Hb (9 h): 13.2 g/dL
- Ht (9 h): 39.7%
- Lym (9 h): 66.8%
- MCHC (9 h): 33.2%
- MCV (9 h): 63.9 fL
- Mono (9 h): 1.6%
- Neu (9 h): 30%
- PT (9 h): 15.5 s
- Plat (9 h): 128.9 x10_4/uL
- RBC (9 h): 622.8 x10_4/ul
- Ret (9 h): 7.7%
- WBC (9 h): 64.2 x10_2/uL
- KIDNEY_L (9 h): 1.1 g
- KIDNEY_R (9 h): 1.1 g
- KIDNEY_TOTAL (9 h): 2.1 g
- LIVER (9 h): 9.7 g
- ALP (9 h): 1539.6 IU/L
- ALT (9 h): 39 IU/L
- AST (9 h): 66.6 IU/L
- BUN (9 h): 11.4 mg/dL
- CRE (9 h): 0.1 mg/dL
- Ca (9 h): 10.9 mg/dL
- Cl (9 h): 105.2 meq/L
- DBIL (9 h): 0.004 mg/dL
- GLC (9 h): 171.2 mg/dL
- IP (9 h): 9.6 mg/dL
- K (9 h): 4 meq/L
- LDH (9 h): 217.8 IU/L
- Na (9 h): 138.8 meq/L
- PL (9 h): 121 mg/dL
- RALB (9 h): 3 g/dL
- TBIL (9 h): 0.014 mg/dL
- TC (9 h): 62 mg/dL
- TG (9 h): 48.2 mg/dL
- TP (9 h): 5.6 g/dL
- gamma-GTP (9 h): 1 IU/L
- TERMINAL_BW (24 h): 208.6 g
- APTT (24 h): 21.2 s
- Bas (24 h): 0%
- Eos (24 h): 1%
- Fbg (24 h): 327.6 mg/dL
- Hb (24 h): 13.6 g/dL
- Ht (24 h): 40.4%
- Lym (24 h): 82%
- MCHC (24 h): 33.6%
- MCV (24 h): 62.7 fL
- Mono (24 h): 1.2%
- Neu (24 h): 15.4%
- PT (24 h): 16.1 s
- Plat (24 h): 132.8 x10_4/uL
- RBC (24 h): 645.6 x10_4/ul
- Ret (24 h): 6%
- WBC (24 h): 65.9 x10_2/uL
- KIDNEY_L (24 h): 0.9 g
- KIDNEY_R (24 h): 1 g
- KIDNEY_TOTAL (24 h): 1.9 g
- LIVER (24 h): 9.4 g
- ALP (24 h): 1840.2 IU/L
- ALT (24 h): 50 IU/L
- AST (24 h): 71.6 IU/L
- BUN (24 h): 15.4 mg/dL
- CRE (24 h): 0.1 mg/dL
- Ca (24 h): 10.7 mg/dL
- Cl (24 h): 106.8 meq/L
- DBIL (24 h): 0 mg/dL
- GLC (24 h): 170.2 mg/dL
- IP (24 h): 7.9 mg/dL
- K (24 h): 4.2 meq/L
- LDH (24 h): 256.2 IU/L
- Na (24 h): 141.8 meq/L
- PL (24 h): 149 mg/dL
- RALB (24 h): 3.2 g/dL
- TBIL (24 h): 0.012 mg/dL
- TC (24 h): 79.6 mg/dL
- TG (24 h): 78 mg/dL
- TP (24 h): 5.8 g/dL
- gamma-GTP (24 h): 1 IU/L
